Assay: xn = mol fraction of the nth substance listed
Settings: 101 kPa

COCCOCCOCCOCCOC + O
viscosity [mPa·s]
Settings	298 K	303.15 K	308.15 K	313.15 K	318.15 K	323.15 K
x1 = 0.00562	–	1.177	1.049	0.937	0.839	0.767
x1 = 0.0075	1.323	–	–	–	–	–
x1 = 0.0142	1.533	–	–	–	–	–
x1 = 0.02904	–	2.119	1.844	1.618	1.431	1.275
x1 = 0.0297	2.433	–	–	–	–	–
x1 = 0.0419	3.198	–	–	–	–	–
x1 = 0.04576	–	3.14	2.677	2.309	1.992	1.766
x1 = 0.0593	4.289	–	–	–	–	–
x1 = 0.07654	–	4.235	3.566	3.043	2.621	2.273
x1 = 0.0784	5.24	–	–	–	–	–
x1 = 0.1006	–	4.915	4.126	3.487	2.994	2.593
x1 = 0.1139	6.253	–	–	–	–	–
x1 = 0.1272	–	5.245	4.392	3.729	3.181	2.758
x1 = 0.1398	6.469	–	–	–	–	–
x1 = 0.1512	–	5.331	4.475	3.802	3.273	2.838
x1 = 0.1543	6.411	–	–	–	–	–
x1 = 0.2009	–	5.151	4.371	3.744	3.243	2.839
x1 = 0.2493	–	4.865	4.154	3.6	3.128	2.76
x1 = 0.2986	–	4.539	3.909	3.397	2.982	–
x1 = 0.3508	–	4.269	3.695	3.228	2.845	2.528
x1 = 0.4016	–	4.026	3.508	3.089	2.735	2.433
x1 = 0.5033	–	3.66	3.22	2.853	2.543	2.281
x1 = 0.5975	–	3.428	3.025	2.698	2.42	2.183
x1 = 0.7029	–	3.236	2.883	2.577	2.323	–
x1 = 0.8018	–	3.113	2.78	2.497	2.257	2.047
x1 = 0.8532	–	3.066	2.744	2.467	2.231	2.029
x1 = 0.9025	–	3.019	2.704	–	2.203	–
x1 = 0.9447	–	2.982	2.679	2.414	2.182	1.99

— the CheMixHub viscosity set
